Data set [1] in a line: pKa (Table 1). Format: physicochemical.
The test system of data set [2] is mammalian α-L-fucosidases. The following applies: cited from earlier work.
Data set [3] has as its system N-acetyl-β-D-hexosaminidase. Put plainly: Specificity: inhibition of other glycosidases in human liver extract at 1 mM, N-acetyl-β-D-hexosaminidase. The following applies: 4-umbelliferyl glycoside substrate 0.5 mM, optimal pH. Format: biochemical. On the procedure: Tissue Post-mortem human liver, which had been stored at -20° C. until required was homogenized in deionized water (50%, w/v) in a Potter-Elvehjem homogenizer and then centrifuged at 37,000 g for 30 min in an MSE 18 centrifuge. The resultant supernatant was used as the source of human glycosidases. A lyophilized extract of liver from Charonia lampas was obtained from Seikagaku Kogyo Co., Japan for the isolation of α-L-fucosidase by the published procedure of Iijima and Egami, J. Biochem. 70, 75-78 (1971).
Enzyme Assays The glycosidase activities in an extract of human liver were assayed by using the appropriate fluorigenic 4-umbelliferyl glycoside substrate (Koch-Light, Haverhill, Suffolk, U.K.) with a concentration of 0.5 mM at the optimal pH for each enzyme [Burditt et al., Biochem. J. 189, 467-473 (1980)]. The specificity of the inhibitors was determined by assaying the glycosidases in the presence of and absence of a 1 mM solution of each compound. The nature of the inhibition of human α-L-fucosidase, the value of Ki determined by using the Dixon graphical procedure and the effect of pH on the inhibition were investigated as described previously by Al Daher et al., Biochem. J. 258, 613-615 (1989). […]

Data set [4] has as its system human immunodeficiency virus. The settings on record: cited from earlier work.
The subject of data set [5] is α-glucosidase. The following applies: cited from earlier work.
For data set [6], the system named is digestive α-glucosidase. The settings on record: cited from earlier work.

For `C[C@@H]1NC[C@@H](O)[C@H](O)[C@@H]1O` [DFJ, 1,5-Dideoxy-1,5-imino-L-fucitol], in data set [1], the pKa stood at 8.4. Also, the “inhibition of a number of mammalian α-L-fucosidases” value in data set [2] is “very powerful and highly specific inhibitor of a number of mammalian α-L-fucosidases”. Also, the “Other specificities (% inhibition at 1 mM): N-acetyl-β-D-hexosaminidase” value in data set [3] stood at 59%.

`OC[C@H]1NC[C@H](O)[C@@H](O)[C@@H]1O` [deoxynojirimycin (1), deoxynojirimycin]: the “inhibition of human immunodeficiency virus synctium formation” value in data set [4] (syncytium formation) is “inhibit human immunodeficiency virus synctium formation”. Further, the “inhibition of human immunodeficiency virus replication” value in data set [4] (virus replication) was “inhibit human immunodeficiency virus synctium formation and virus replication”. In data set [5], the α-glucosidase inhibition result is “α-glucosidase inhibitor”.

Regarding `OC[C@H]1N[C@H](CO)[C@@H](O)[C@H](O)[C@H]1O` [α-Homonojirimycin], the “inhibition of digestive α-glucosidase activity” value in data set [6] is given as “potent inhibitor of digestive α-glucosidase activity”.

In data set [1], `C[C@H]1N[C@@H](CO)[C@@H](O)[C@H](O)[C@@H]1O` [(6), 2,6-Imino-2,6,7-trideoxy-D-glycero-D-gluco-heptitol] displayed a pKa of 7.7.

The values above are taken from US5096909A, “Fucosidase inhibitor” (Monsanto Company, priority 1990, dated 1992).
